Reference: ChEMBL document CHEMBL5236640, “SAR study of 1,2-benzisothiazole dioxide compounds that agonize HIF-2 stabilization and EPO production” (Bioorg Med Chem, 2023)
Activity calls are given as the source filed them. The calls are words filed in the database; no cut-off is given here.

Assays:
[1] = target: Endothelial PAS domain-containing protein 1 (Homo sapiens) (UniProt Q99814); test: Synergistic agonist activity at human HIF-2alpha expressed in human Hep3B cells assessed as induction of EPO transcription at 5 uM pretreated with FG4592 followed by compound addition and measured after 12 hrs by qRT-PCR analysis; assay type: cell-based; details: filed as agonist
Chain of Endothelial PAS domain-containing protein 1 (Homo sapiens) (Q99814 whole entry, the tested form may be a part): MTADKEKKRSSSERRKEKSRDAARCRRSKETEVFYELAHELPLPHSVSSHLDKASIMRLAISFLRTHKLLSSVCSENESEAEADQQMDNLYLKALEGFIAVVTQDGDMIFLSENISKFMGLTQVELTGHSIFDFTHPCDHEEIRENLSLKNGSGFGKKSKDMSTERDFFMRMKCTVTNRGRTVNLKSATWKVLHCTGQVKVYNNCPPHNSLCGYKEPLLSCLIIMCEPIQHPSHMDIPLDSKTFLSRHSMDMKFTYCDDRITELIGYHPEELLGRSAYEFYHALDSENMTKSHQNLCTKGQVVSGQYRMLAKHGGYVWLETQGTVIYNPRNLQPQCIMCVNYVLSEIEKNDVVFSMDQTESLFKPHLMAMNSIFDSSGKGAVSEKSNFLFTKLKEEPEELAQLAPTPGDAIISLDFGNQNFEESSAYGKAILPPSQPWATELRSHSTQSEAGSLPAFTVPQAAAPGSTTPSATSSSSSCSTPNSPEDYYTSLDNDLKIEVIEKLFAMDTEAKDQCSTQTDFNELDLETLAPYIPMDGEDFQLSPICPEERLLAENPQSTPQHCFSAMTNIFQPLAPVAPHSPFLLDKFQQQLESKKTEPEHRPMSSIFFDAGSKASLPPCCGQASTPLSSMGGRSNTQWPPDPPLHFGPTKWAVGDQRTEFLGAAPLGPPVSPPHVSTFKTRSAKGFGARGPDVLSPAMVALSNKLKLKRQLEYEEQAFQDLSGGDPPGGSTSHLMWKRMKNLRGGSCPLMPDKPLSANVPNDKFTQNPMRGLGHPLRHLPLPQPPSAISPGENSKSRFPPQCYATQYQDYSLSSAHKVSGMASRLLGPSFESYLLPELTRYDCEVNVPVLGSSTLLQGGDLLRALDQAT

[2] = target: Aryl hydrocarbon receptor nuclear translocator/Endothelial PAS domain-containing protein 1 (Homo sapiens) (UniProt P27540+Q99814); details: filed as agonist, dose 10.0 µM
Chain of Aryl hydrocarbon receptor nuclear translocator/Endothelial PAS domain-containing protein 1 (Homo sapiens) (P27540 2-789 limits assumed): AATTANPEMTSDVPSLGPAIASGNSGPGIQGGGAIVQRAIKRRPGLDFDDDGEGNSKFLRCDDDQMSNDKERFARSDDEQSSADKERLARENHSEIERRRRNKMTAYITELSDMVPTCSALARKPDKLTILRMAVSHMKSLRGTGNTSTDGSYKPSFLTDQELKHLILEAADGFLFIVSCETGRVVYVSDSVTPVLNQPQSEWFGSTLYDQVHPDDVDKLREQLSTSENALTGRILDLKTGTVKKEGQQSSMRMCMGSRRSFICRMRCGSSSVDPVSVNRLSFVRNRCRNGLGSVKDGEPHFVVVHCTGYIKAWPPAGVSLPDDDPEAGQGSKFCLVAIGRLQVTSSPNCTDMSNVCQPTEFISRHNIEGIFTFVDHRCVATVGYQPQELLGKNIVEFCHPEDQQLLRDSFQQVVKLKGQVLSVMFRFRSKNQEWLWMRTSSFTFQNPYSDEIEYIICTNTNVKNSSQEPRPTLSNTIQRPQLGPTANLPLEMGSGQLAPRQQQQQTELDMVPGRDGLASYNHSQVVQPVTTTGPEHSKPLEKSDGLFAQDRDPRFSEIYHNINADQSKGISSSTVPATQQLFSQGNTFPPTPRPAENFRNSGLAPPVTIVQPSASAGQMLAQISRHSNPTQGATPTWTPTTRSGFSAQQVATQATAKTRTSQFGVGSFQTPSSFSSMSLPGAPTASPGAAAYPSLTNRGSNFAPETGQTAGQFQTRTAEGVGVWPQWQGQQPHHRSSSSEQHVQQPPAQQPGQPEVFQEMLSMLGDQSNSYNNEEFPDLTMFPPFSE
Chain of Aryl hydrocarbon receptor nuclear translocator/Endothelial PAS domain-containing protein 1 (Homo sapiens) (Q99814 whole entry partner, the tested form may be a part): as the sequence (Q99814 whole entry, the tested form may be a part) above

[3] = target: Endothelial PAS domain-containing protein 1 (Homo sapiens) (UniProt Q99814); test: Agonist activity at human HIF-2alpha expressed in human 786-0 cells assessed as increase in NDRG1 transcription level at 20 uM incubated for 24 hrs by RT-PCR analysis relative to control; assay type: cell-based; details: filed as agonist
[4] = target: Endothelial PAS domain-containing protein 1 (Homo sapiens) (UniProt Q99814); test: Agonist activity at human HIF-2alpha expressed in human 786-0 cells assessed as increase in VEGFA transcription level at 20 uM incubated for 24 hrs by RT-PCR analysis relative to control; assay type: cell-based; details: filed as agonist
[5] = target: Endothelial PAS domain-containing protein 1 (Homo sapiens) (UniProt Q99814); test: Agonist activity at human HIF-2alpha expressed in human 786-0 cells assessed as increase in GLUT1 transcription level at 20 uM incubated for 24 hrs by RT-PCR analysis relative to control; assay type: cell-based; details: filed as agonist
[6] = target: Endothelial PAS domain-containing protein 1 (Homo sapiens) (UniProt Q99814); test: Agonist activity at human HIF-2alpha expressed in human 786-0 cells assessed as increase in PGK1 transcription level at 20 uM incubated for 24 hrs by RT-PCR analysis relative to control; assay type: cell-based; details: filed as agonist
[7] = target: Endothelial PAS domain-containing protein 1 (Homo sapiens) (UniProt Q99814); test: Agonist activity at human HIF-2alpha expressed in human 786-0 cells assessed as increase in NDRG1 transcription level at 2 uM incubated for 24 hrs by RT-PCR analysis relative to control; assay type: cell-based; details: filed as agonist
[8] = target: Endothelial PAS domain-containing protein 1 (Homo sapiens) (UniProt Q99814); test: Agonist activity at human HIF-2alpha expressed in human 786-0 cells assessed as increase in NDRG1 transcription level at 0.2 uM incubated for 24 hrs by RT-PCR analysis relative to control; assay type: cell-based; details: filed as agonist
[9] = target: Endothelial PAS domain-containing protein 1 (Homo sapiens) (UniProt Q99814); test: Agonist activity at human HIF-2alpha expressed in human 786-0 cells assessed as increase in VEGFA transcription level at 2 uM incubated for 24 hrs by RT-PCR analysis relative to control; assay type: cell-based; details: filed as agonist
[10] = target: Endothelial PAS domain-containing protein 1 (Homo sapiens) (UniProt Q99814); test: Agonist activity at human HIF-2alpha expressed in human 786-0 cells assessed as increase in VEGFA transcription level at 0.2 uM incubated for 24 hrs by RT-PCR analysis relative to control; assay type: cell-based; details: filed as agonist

| SMILES | Activity [1] | ΔTm [2] | Activity [3] | Activity [4] | Activity [6] | further results |
| --- | --- | --- | --- | --- | --- | --- |
| O=S1(=O)N=C(Nc2cc(C(F)(F)F)cc(C(F)(F)F)c2)c2ccc(Br)cc21 | Active | 0.07 °C | – | – | – | – |
| O=S1(=O)N=C(Nc2cccc(C(F)(F)F)c2)c2ccccc21 | Active | 0.74 °C | 89.4% | 77.9% | 102% | Activity [5]: 80.9% |
| O=S1(=O)N=C(Nc2ccc(C(F)(F)F)cc2)c2ccccc21 | Active | 0.44 °C | 95.1% | 85.7% | 90% | Activity [5]: 76.8% |
| O=S1(=O)N=C(Nc2ccc(F)cc2)c2ccccc21 | – | 0.3 °C | – | – | – | – |
| COC(=O)c1cc(C#N)cc(NC2=NS(=O)(=O)c3ccccc32)c1 | Active | 1.28 °C | – | – | – | – |
| O=S1(=O)C=C(Nc2cc(C(F)(F)F)cc(C(F)(F)F)c2)c2ccccc21 | Active | 0.44 °C | – | – | – | – |
| O=S1(=O)N=C(Nc2cc(C(F)(F)F)cc(C(F)(F)F)c2)c2ccccc21 | Active | 0.89 °C | 272% | 161% | 55% | Activity [5]: 132% |
| O=S1(=O)N=C(Nc2cccc(F)c2F)c2ccccc21 | – | -0.15 °C | – | – | – | – |
| CN(C1=NS(=O)(=O)c2ccccc21)c1cc(C(F)(F)F)cc(C(F)(F)F)c1 | Active | 0.44 °C | 96.6% | 124% | 97% | – |
| O=S1(=O)N=C(Nc2cc(F)cc(F)c2)c2cc(Br)ccc21 | Active | 0.37 °C | – | – | – | – |
| O=S1(=O)N=C(Nc2ccccc2F)c2ccccc21 | – | 0.22 °C | – | – | – | – |
| CS(=O)(=O)c1cc(NC2=NS(=O)(=O)c3ccccc32)cc(S(C)(=O)=O)c1 | – | 0 °C | – | – | – | – |
| O=S1(=O)N=C(Nc2ccc(F)c(F)c2)c2ccccc21 | Active | 0.29 °C | – | – | – | – |
| O=S1(=O)N=C(Nc2cc(C(F)(F)F)cc(C(F)(F)F)c2)c2cc(Br)ccc21 | Active | 0.87 °C | 432% | 265% | 117% | Activity [5]: 218%; Activity [7]: 110%; Activity [8]: 88%; Activity [9]: 116%; Activity [10]: 93.3% |
| O=S1(=O)N=C(Nc2ccccc2)c2ccccc21 | – | 0.02 °C | 126% | 140% | 90% | Activity [5]: 96.3% |
| O=S1(=O)N=C(Nc2cc(C(F)(F)F)cc(C(F)(F)F)c2)c2cc(F)ccc21 | – | -0.14 °C | – | – | – | – |
| O=S1(=O)N=C(Nc2cccc(F)c2)c2ccccc21 | – | 0.17 °C | – | – | – | – |

| SMILES | Activity [1] | ΔTm [2] | Activity [3] | Activity [4] | Activity [6] | further results |
| --- | --- | --- | --- | --- | --- | --- |
| O=S1(=O)N=C(Nc2cc(F)cc(F)c2)c2ccccc21 | Active | 0.55 °C | 214% | 146% | 72% | Activity [5]: 185% |
| O=S1(=O)N=C(Nc2cc(F)cc(F)c2)c2ccc(Br)cc21 | – | -0.06 °C | – | – | – | – |
| [O-][s+]1cc(Nc2cc(C(F)(F)F)cc(C(F)(F)F)c2)c2ccccc21 (stereo unspecified) | – | 0.17 °C | 87.4% | 111% | 127% | Activity [5]: 108% |
| O=S1(=O)N=C(Oc2cc(C(F)(F)F)cc(C(F)(F)F)c2)c2ccccc21 | Active | 0.07 °C | 97.6% | 105% | 124% | – |
| CC(=O)c1cccc(NC2=NS(=O)(=O)c3ccccc32)c1 | – | -0.13 °C | – | – | – | – |
| COc1cc(NC2=NS(=O)(=O)c3ccccc32)cc(OC)c1 | Active | 0 °C | – | – | – | – |
| FC(F)(F)c1cc(Nc2csc3ccccc23)cc(C(F)(F)F)c1 | – | 0.1 °C | 92.1% | 102% | 62% | Activity [5]: 87.4% |
| O=S1(=O)N=C(Nc2cc(C(F)(F)F)cc(C(F)(F)F)c2)c2cc(Cl)ccc21 | – | -0.1 °C | – | – | – | – |
| N#Cc1cccc(NC2=NS(=O)(=O)c3ccccc32)c1 | – | 0.07 °C | – | – | – | – |
| COC(=O)c1cc(NC2=NS(=O)(=O)c3ccccc32)cc(C(=O)OC)c1 | – | 0.02 °C | – | – | – | – |
| N#Cc1cc(NC2=NS(=O)(=O)c3ccccc32)cc(C(F)(F)F)c1 | Active | 0.96 °C | – | – | – | – |
| O=C(O)c1cc(NC2=NS(=O)(=O)c3ccccc32)cc(C(=O)O)c1 | Active | 0.74 °C | – | – | – | – |
| O=S1(=O)N=C(Nc2cc(F)ccc2F)c2ccccc21 | – | 0.07 °C | – | – | – | – |
| COc1ccc2c(c1)C(Nc1cc(C(F)(F)F)cc(C(F)(F)F)c1)=NS2(=O)=O | – | -0.29 °C | – | – | – | – |
| N#Cc1ccc2c(c1)C(Nc1cc(C(F)(F)F)cc(C(F)(F)F)c1)=NS2(=O)=O | Active | 0.83 °C | – | – | – | – |
| O=S1(=O)N=C(Nc2ccc(F)cc2F)c2ccccc21 | – | 0.14 °C | – | – | – | – |
